Experimental data from patent publication US20240156960A1 (priority 2020, published 2024).
Like-named read-outs stand apart in the source and are kept apart here.

How the values were obtained:
[1] = tested on: coronavirus named in the cell (SARS-CoV2, SARS-CoV1); details: cited from earlier work
[2] = tested on: coronavirus named in the cell (SARS-CoV2, SARS-CoV1), S protein; details: cited from earlier work
[3] = Critical toxicity markers after dexamethasone pretreatment and IV DNA vector; details: pre-dosed IP 1 to 40 mg/kg
SARS-CoV2 [4] = details: Protein + Epitope: S; literature source; cited from earlier work
SARS-CoV1 [5] = details: cited from earlier work
SARS-CoV2 S; RBD = SARS-CoV2 S; RBD (Severe acute respiratory syndrome coronavirus 2, UniProt P0DTC2); details: epitope S; cited from earlier work
SARS-CoV1 [6] = details: cited from earlier work; remark: listed apart in the source
[7] = mouse, in vivo
SARS-CoV2 [8] = details: SARS-CoV2 listed as bound; cited from earlier work
SARS-CoV2 [9] = details: SARS-CoV2 listed as neutralised; cited from earlier work
SARS-CoV2 [10] = details: source Seth Zost et al., 2020; cited from earlier work
[11] = Serum ALT/AST levels (toxicity) after liposome and DNA injection
[12] = Serum hG-CSF protein by ELISA after DOTAP liposomes, hG-CSF plasmid DNA and immuno-modulating agents; format: in vivo, CD-1 mice
mouse IGF-1 = assay: Serum levels of mouse IGF-1 by ELISA (hGH bioactivity); format: in vivo; details: CD-1 mice, day 127 after injection (Example 10)
[13] = IP 2 hours prior to lipid and DNA injection (Example 20 Part 4)
[14] = agent in liposomes pre-injected IP prior to cationic liposomes (Example 16 Part 3)
[15] = agent incorporated into cationic liposomes (900 nmol DOTAP SUV), 70 ug hG-CSF DNA, day 1

4A8
Neutralising Vs [1]: SARS-CoV2
Binds to [2]: SARS-CoV2

C[C@@H]1C[C@H]2[C@@H]3CCC4=CC(=O)C=C[C@]4(C)[C@@]3(F)[C@@H](O)C[C@]2(C)[C@@]1(O)C(=O)CO [dexamethasone]
critical toxicity markers [3]: at or closely approximating background control levels

B38
Binds to (SARS-CoV2 [4]): SARS-CoV2

BD23
Binds to (SARS-CoV2 [4]): SARS-CoV2

C002
Not Neutralising Vs (SARS-CoV1 [5]): SARS-CoV1
Binds to (SARS-CoV2 [4]): SARS-CoV2

C003
Not Neutralising Vs (SARS-CoV1 [5]): SARS-CoV1
Binds to (SARS-CoV2 [4]): SARS-CoV2

C005
Not Neutralising Vs (SARS-CoV1 [5]): SARS-CoV1
Binds to (SARS-CoV2 [4]): SARS-CoV2

C006
Not Neutralising Vs (SARS-CoV1 [5]): SARS-CoV1
Binds to (SARS-CoV2 [4]): SARS-CoV2

C013
Not Neutralising Vs (SARS-CoV1 [5]): SARS-CoV1
Binds to (SARS-CoV2 [4]): SARS-CoV2

C016
Not Neutralising Vs (SARS-CoV1 [5]): SARS-CoV1,
Binds to (SARS-CoV2 [4]): SARS-CoV2

C018
Binds to (SARS-CoV2 S; RBD): SARS-CoV2
Not Neutralising Vs (SARS-CoV1 [6]): SARS-CoV1,

C021
Binds to (SARS-CoV2 S; RBD): SARS-CoV2
Not Neutralising Vs (SARS-CoV1 [6]): SARS-CoV1,

C029
Binds to (SARS-CoV2 S; RBD): SARS-CoV2
Not Neutralising Vs (SARS-CoV1 [6]): SARS-CoV1,

C102
Binds to (SARS-CoV2 S; RBD): SARS-CoV2

C107
Binds to (SARS-CoV2 S; RBD): SARS-CoV2
Not Neutralising Vs (SARS-CoV1 [6]): SARS-CoV1,

C112
Binds to (SARS-CoV2 S; RBD): SARS-CoV2

C119
Binds to (SARS-CoV2 S; RBD): SARS-CoV2

C121
duration of fully neutralizing serum levels of each SARS-CoV2-specific mAb [7]: at least 134 days
Binds to (SARS-CoV2 S; RBD): SARS-CoV2

CB6
Binds to (SARS-CoV2 [8]): SARS-CoV2
Neutralising Vs (SARS-CoV2 [9]): SARS-CoV2

CoV2-2130
Binds to (SARS-CoV2 [10]): SARS-CoV2

CoV2-2196
Binds to (SARS-CoV2 [10]): SARS-CoV2

N-Acetyl-De-O-Sulfated Heparin [NSH]
toxicity (serum ALT/AST) ([11]; IP 0.25 or 1 mg per mouse, 2 hours pre or 2 hours post lipid and DNA injection): reduce toxicity
toxicity (serum ALT/AST) [11, 13]: further reducing its toxicity
gene expression (serum hG-CSF) [12, 13]: further increase gene expression

dexamethasone 21-palmitate [dexamethasone palmitate]
toxicity (ALT levels) [11, 14]: further decrease toxicity
toxicity (ALT levels) [11, 15]: further decrease toxicity
peak levels of gene expression (serum hG-CSF) ([12]; 5 mole percent in DOTAP SUV, otherwise ineffective hG-CSF-DNA dose (Example 16 Part 6)): further increase peak levels of gene expression
gene expression (serum hG-CSF) [12, 14]: further increase gene expression
gene expression (serum hG-CSF) [12, 15]: further increase gene expression

hGH
bioactivity of cDNA-encoded hGH protein (increase of endogenous mouse IGF-1) (mouse IGF-1): fully bioactive
